Laboratory results: paper PMC8262356, “SLC26A6-selective inhibitor identified in a small-molecule screen blocks fluid absorption in small intestine” (JCI Insight, 2021)

What was measured:
CFTR = target: T1, CFTR (Homo sapiens, UniProt P13569); assay: Short-circuit current in well-differentiated HBE cells, forskolin/CFTRinh-172 response; assay type: cell-based; conditions: 25 μM pretreatment
T1 construct: endogenous in cells; host or cells: well-differentiated human bronchial epithelial (HBE) cells at air-liquid interface
Description: (§1) PAT1inh-B01 selectivity was studied by testing its effects on related SLC26A family anion transporters and the Cl^– channel TMEM16A. These measurements used a similar Cl^–/I^– exchange protocol, but FRT cells separately expressed each of the SLC26A family members or TMEM16A. […] PAT1inh-B01 selectivity was also tested by short-circuit current (Isc) in well-differentiated human bronchial epithelial (HBE) cells, which have a complex ion transport mechanism that includes cystic fibrosis transmembrane conductance regulator (CFTR), epithelial Na^+ channel (ENaC), and Ca^+2-activated chloride channels (CaCCs) ([13]). […] Potential PAT1inh-B01 cytotoxicity was studied in FRT cells.
(§2) Figure 3 PAT1inh-B01 selectivity and cytotoxicity. […] Cl^–/I^– exchange or I^– influx measured in FRT cells coexpressing YFP and SLC26A isoforms or TMEM16A, with data shown for 25 μM PAT1inh-B01, DMSO vehicle control, and 500 μM niflumic acid (positive control for SLC26A transporters) or 10 μM TMinh-23 (positive control for TMEM16A). […] (C) (left) Short-circuit current (Isc) in well-differentiated HBE cells measured in the absence (top) and presence (bottom) of 25 μM PAT1inh-B01. […]
(§3) YFP-based cellular assays of slc26a3, slc26a4, SLC26A9, and TMEM16A function were performed as described previously ([7]). […] The activities of ENaC, CFTR, and CaCC were determined using well-differentiated HBE cells as described previously ([13]). […]

[1] = system: loperamide-induced constipation in mice; assay: Loperamide model of constipation; assay type: in vivo, mouse; conditions: 10 mg/kg, oral, stool collected over 3 hours
Description: Wild-type CD1 mice were administered loperamide (0.3 mg/kg, intraperitoneally) in PBS containing 5% ethanol (0.1 mg/mL final concentration) to induce constipation ([9], [30]). PAT1inh-B01 and DRAinh-A270, individually or together (10 mg/kg each, in saline containing 5% DMSO and 10% Kolliphor HS 15), or vehicle control were administered by oral gavage 1 hour before loperamide. After loperamide injection mice were placed individually in metabolic cages with free access to food and water. Stool samples were collected for 3 hours, and total stool weight and number of fecal pellets were quantified. To measure stool water content, stool samples were dried at 80°C for 24 hours and water content was calculated as follows: (wet weight – dry weight)/wet weight ([9], [30]).

CaCC = assay: Short-circuit current in well-differentiated HBE cells, ATP response; assay type: cell-based, human; conditions: 25 μM pretreatment
Description: as §1, §2, §3

[2] = system: mouse distal colonic closed loops; assay: Closed distal colonic loop fluid absorption; assay type: in vivo; conditions: 30 μM luminal
Description: For fluid absorption studies in colon, mice were given free access to 5% dextrose in water but not solid food for 48 hours. Mice were treated with 500 μL mineral oil twice a day rectally (final dose 16 h before surgery) during this period to evacuate the colon. Closed distal colonic loops (length 1.5–2 cm, 1 loop per mouse) were isolated as described previously ([7]). Loops were injected with 100 μL PBS with 30 μM PAT1inh-B01, 10 μM DRAinh-A270, or 10 μM tenapanor (or vehicle). In some experiments, 30 μM PAT1inh-B01 and 10 μM DRAinh-A270 were used together. Colonic loops were removed at 0 and 60 minutes (in separate mice), and loop length and weight were measured to quantify fluid absorption.

[3] = system: ileal closed loops in cystic fibrosis (CF) mice (homozygous F508del); assay: Closed ileal loop fluid absorption in CF mice; assay type: in vivo, mouse; conditions: 30 μM luminal
Description: For fluid absorption studies in small intestine, mice were given free access to 5% dextrose in water but not solid food for 24 hours before experiments. Closed midjejunal and ileal loops were prepared and isolated as described previously ([29]). Mice were anesthetized with isoflurane, and body temperature was maintained during surgery at 36°C–38°C using a heating pad. A small abdominal incision was made to expose small intestine for isolation of 3–4 closed small intestinal loops (jejunum or ileum, length 2–3 cm) with sutures. Loops were injected with 100 μL PBS (pH 7.4, 137 mM NaCl, 2.7 mM KCl, 8 mM Na2HPO4, 1.8 mM KH2PO4, 1 mM CaCl2, 0.5 mM MgCl2) containing 30 μM PAT1inh-B01, 10 μM DRAinh-A270, or 10 μM tenapanor (MedChemExpress) (or vehicle, 0.1% DMSO in PBS). In some experiments, 30 μM PAT1inh-B01 and 10 μM DRAinh-A270 were used together. In some experiments to rule out effects of sodium-dependent phosphate transport, the loop lumen contained HEPES-buffered saline (pH 7.4, 137 mM NaCl, 4.5 mM KCl, 10 mM HEPES, 1 mM CaCl2, 0.5 mM MgCl2). The abdominal incision was closed with sutures, and mice were allowed to recover from anesthesia. Intestinal loops were removed at 0 and 30 minutes (in separate mice), and loop length and weight were measured to quantify fluid absorption. In parallel experiments, CF mice were used and loop studies were done as described above. In some experiments, loop fluid was emptied with a syringe, and pH was measured immediately using AB15 pH meter after brief centrifugation at 2000 g for 5 minutes at 4°C.

Solubility = assay type: physicochemical

T1 sequence (P13569 whole entry): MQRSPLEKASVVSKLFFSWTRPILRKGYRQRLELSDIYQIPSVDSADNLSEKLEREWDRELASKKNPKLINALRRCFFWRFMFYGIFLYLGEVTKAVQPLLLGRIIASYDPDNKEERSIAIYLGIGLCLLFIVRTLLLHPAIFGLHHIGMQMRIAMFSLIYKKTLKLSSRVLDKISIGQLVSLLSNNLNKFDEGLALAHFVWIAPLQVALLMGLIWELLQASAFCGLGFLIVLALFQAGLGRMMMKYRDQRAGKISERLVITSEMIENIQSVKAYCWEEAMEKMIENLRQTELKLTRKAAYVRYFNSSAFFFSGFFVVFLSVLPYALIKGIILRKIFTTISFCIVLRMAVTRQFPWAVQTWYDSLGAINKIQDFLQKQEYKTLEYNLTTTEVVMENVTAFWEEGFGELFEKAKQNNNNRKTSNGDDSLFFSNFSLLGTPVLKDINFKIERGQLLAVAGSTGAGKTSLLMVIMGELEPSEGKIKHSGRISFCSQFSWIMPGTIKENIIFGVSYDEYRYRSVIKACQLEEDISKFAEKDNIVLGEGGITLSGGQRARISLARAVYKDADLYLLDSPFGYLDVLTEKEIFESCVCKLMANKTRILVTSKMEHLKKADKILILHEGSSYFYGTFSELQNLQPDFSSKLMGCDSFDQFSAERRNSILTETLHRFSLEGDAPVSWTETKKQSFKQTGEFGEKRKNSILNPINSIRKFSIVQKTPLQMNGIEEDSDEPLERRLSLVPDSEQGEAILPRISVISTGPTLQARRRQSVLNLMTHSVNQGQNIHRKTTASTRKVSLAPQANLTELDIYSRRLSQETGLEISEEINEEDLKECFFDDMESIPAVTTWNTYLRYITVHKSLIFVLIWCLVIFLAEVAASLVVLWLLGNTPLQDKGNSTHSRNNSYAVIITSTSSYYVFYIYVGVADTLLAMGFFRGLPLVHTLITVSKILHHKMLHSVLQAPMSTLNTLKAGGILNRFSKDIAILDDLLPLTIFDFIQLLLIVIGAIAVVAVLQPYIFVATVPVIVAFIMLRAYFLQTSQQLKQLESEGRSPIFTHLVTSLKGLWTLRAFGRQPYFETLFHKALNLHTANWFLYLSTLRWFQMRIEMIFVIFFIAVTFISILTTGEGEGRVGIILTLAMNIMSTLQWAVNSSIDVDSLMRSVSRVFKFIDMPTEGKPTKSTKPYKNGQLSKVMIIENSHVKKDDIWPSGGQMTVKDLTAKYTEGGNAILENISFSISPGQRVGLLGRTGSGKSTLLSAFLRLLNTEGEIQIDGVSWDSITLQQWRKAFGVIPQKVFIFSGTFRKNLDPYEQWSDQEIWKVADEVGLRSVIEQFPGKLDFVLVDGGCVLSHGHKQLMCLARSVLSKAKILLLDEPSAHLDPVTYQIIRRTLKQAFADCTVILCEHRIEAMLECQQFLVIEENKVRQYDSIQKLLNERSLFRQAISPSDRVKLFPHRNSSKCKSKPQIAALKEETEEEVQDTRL

For `Cc1c(Br)c(C(F)(F)F)nn1CC(=O)N1CCc2nc3cc(-c4ccccc4)[nH]n3c(=O)c2C1` [PAT1inh-B01], the “effect on CFTR activity (Isc response to forskolin/CFTRinh-172)” value (CFTR) was “no significant effect”, the “effect on stool parameters (weight, number of pellets, water content)” value [1] was “did not affect” and the “effect on CaCC activity (Isc response to ATP)” value (CaCC) was “no significant effect”. For the same molecule, the “effect on colonic fluid absorption (loop weight-to-length ratio)” value [2] was “did not inhibit”, the “effect on fluid absorption from ilea of CF mice” value [3] was “completely blocked” and the solubility (Solubility) was “favorable”.
